Experimental data reported in patent US20240139210A1, “TREATMENT OF NF-KB-MEDIATED DISEASE” (ReveraGen BioPharma, Inc., priority 2020, published 2024).

Key:
Format in all cases: in vivo, human
[1] = test system: participants with DMD; assay: VBP15-003/VBP15-LTE open-label trials, motor outcomes over 18 months; details: for TTCLIMB velocity, LS mean difference (SE), ANCOVA / TTSTAND velocity, LS mean difference (SE), ANCOVA / TTRW velocity, LS mean difference (SE), ANCOVA: vamorolone 18 months vs corticosteroid-naïve DNHS
Excerpt: Assessments of efficacy were motor outcomes (primary outcome: time to stand from supine [TTSTAND]; secondary outcomes: time to run/walk 10 meters [TTRW], time to climb four stairs [TTCLIMB], distance covered in 6-minute walk test [6MWT], and the North Star Ambulatory Assessment [NSAA]). 6MWT and NSAA were not assessed in most CINRG DNHS participants and were not compared to vamorolone-treated participants. According to standard operating procedures, clinical evaluators were trained to harmonize the CINRG vamorolone, CINRG DNHS, and CINRG prednisone studies. Reliability of these outcomes (percent coefficient of variation) has been reported for the VBP15-002/VBP15-003 studies. Assessments were done at baseline (VBP15-002 entry), 24 weeks (VBP15-003 last visit), and 18 months (VBP15-LTE midpoint assessment at 12 months).
Only participants completing VBP15-002 and VBP15-003 were eligible to enroll in VBP15-LTE. Participants received vamorolone at 1 of 4 dose levels (0.25, 0.75, 2.0, or 6.0 mg/kg/day) and at the same dose level in both the 4-week VBP15-002 trial and the 24-week VBP15-003 trial. If participants, their families, and their physicians wished to continue vamorolone treatment upon exiting the VBP15-003 trial, they were offered participation in the 24-month long-term extension (VBP15-LTE). The last visit of the VBP15-003 trial was commensurate with the first visit of the VBP15-LTE trial. In all studies, study medication was provided as 4% flavored liquid suspension and was dosed according to body weight and given once daily in the morning with food.
Vamorolone-treated participants were initially enrolled into VBP15-002 and VBP15-003 in 4 dose groups (0.25, 0.75, 2.0, and 6.0 mg/kg/day; groups A-D). Upon entering VBP15-LTE, vamorolone group A participants had 2 or 3 sequential dose escalations and were treated with 2.0 or 6.0 mg/kg/day for the last 3-9 months of the 18 months; group B participants had 1 or 2 dose escalations and were treated with 2.0 or 6.0 mg/kg/day for the last 9-11 months. Groups C and D were treated for 18 months at 2.0 or 6.0 mg/kg/day (S1 Fig).
The current study is the first to evaluate the longer-term tolerability, efficacy, and safety of vamorolone in DMD. […] Given the variable timing of dose escalations, it was prespecified that initial analyses of drug-related efficacy and safety would be limited to those participants who had 18 months of treatment with 2.0 mg/kg/day vamorolone or more (dose group C+dose group D; n=23). Outcomes for these participants were compared to a group-matched cohort from the CINRG DNHS over 18 months (corticosteroid-naïve, n=19; corticosteroid-treated, n=68). Participants were matched for age and treatment period (±1 month), matching criteria were prespecified in the statistical analysis plan. Two independent statisticians carried out the matching.
Statistical analyses were done on paired longitudinal outcome data using an analysis of covariance (ANCOVA) approach with change from baseline (VBP15-002) to month 18 (midpoint of VBP15-LTE). Baseline response and age were included as covariates. For the vamorolone-treated participants, age was calculated as (date of informed consent minus birthdate)/365.25. For the DNHS participants, age was calculated as (date of baseline visit used minus birthdate)/365.25. The baseline visit for a DNHS participant was the first visit. […] Timed function tests were analyzed as velocity scores to limit the impact of participants who could not perform the test (velocity=0). Velocity measures are variance-stabilizing transformations, suppressing extreme raw outliers from raw values in seconds; these help with distributional assumptions of the statistical models/tests used. Raw data (seconds) are also reported. Velocity scores for TTSTAND (event/second), TTRW (meters/second), and TTCLIMB (event/second) were inputted as 0 at the first response missing due to inability to perform the test. All other data were observed values only, without imputation. […]

[2] = test system: participants with DMD; assay: VBP15-LTE prespecified safety evaluation: height percentile for age and BMI
Procedure: Standing height and weight were assessed at each study visit. Height z-score, body mass index (BMI; kg/m 2), and BMI z-score were calculated centrally. AE reporting was done per protocol in the vamorolone trials.
(§1) Participants in the corticosteroid-treated CINRG DNHS group were treated for at least 18 months, but the total duration, dose, and regimens varied.
Statistical analyses were done on paired longitudinal outcome data using an analysis of covariance (ANCOVA) approach with change from baseline (VBP15-002) to month 18 (midpoint of VBP15-LTE). Baseline response and age were included as covariates. For the vamorolone-treated participants, age was calculated as (date of informed consent minus birthdate)/365.25. For the DNHS participants, age was calculated as (date of baseline visit used minus birthdate)/365.25. The baseline visit for a DNHS participant was the first visit. […] Timed function tests were analyzed as velocity scores to limit the impact of participants who could not perform the test (velocity=0). Velocity measures are variance-stabilizing transformations, suppressing extreme raw outliers from raw values in seconds; these help with distributional assumptions of the statistical models/tests used. Raw data (seconds) are also reported. Velocity scores for TTSTAND (event/second), TTRW (meters/second), and TTCLIMB (event/second) were inputted as 0 at the first response missing due to inability to perform the test. All other data were observed values only, without imputation. No adjustments for multiplicity on inferential statistics were specified in the iSAP.

[3] = test system: boys with DMD; assay: CINRG 12-month prednisone clinical trial, external comparator; details: vamorolone 18-month treatment versus prednisone trial 12-month treatment
Procedure: As with the CINRG DNHS comparators, group-matching criteria were prespecified in the iSAP, and 2 independent statisticians carried out the participant matching. […] There was no corresponding 12-month assessment in vamorolone-treated participants. (Assessments of vamorolone-treated trial participants were 0, 3, 6, and 18 months).
as §1

[4] = test system: ambulant boys aged 4 to <7 years with DMD; assay: VISION-DMD Phase 2b study VBP15-004, efficacy at 24 weeks
Procedure: The second period of 24 weeks, where all participants receive vamorolone treatment on either of the two dose levels, will continue to capture additional longer-term safety and tolerability data.
The study met its primary endpoint of superiority in the change of time to stand from supine positioning to standing (TTSTAND) velocity with vamorolone 6 mg/kg/day versus placebo (p=0.002) with a treatment difference of 0.06 [95% CI: 0.02-0.10] rises/second from baseline. […] Any number p<0.05 is considered significant.

[5] = vamorolone 18 months vs corticosteroid-naïve participants
[6] = 2.0 or 6.0 mg/kg/day for 18 months (groups C+D)
[7] = vamorolone 18 months versus corticosteroid-naïve DNHS

SMILES: C[C@@H]1C[C@H]2[C@@H]3CCC4=CC(=O)C=C[C@]4(C)C3=CC[C@]2(C)[C@@]1(O)C(=O)CO [Vamorolone, 17α,21-dihydroxy-16α-methylpregna-1,4,9(11)-triene-3,20-dione]
- TTCLIMB velocity, LS mean difference (SE), ANCOVA [1]: 0.059 (0.026) event/second
- TTSTAND velocity, LS mean difference (SE), ANCOVA [1]: 0.042 (0.024) event/second
- TTRW velocity, LS mean difference (SE), ANCOVA ([1]; listed as Valmorolone): 0.286 (0.09) meters/second
- TTCLIMB velocity, LS mean difference (SE), ANCOVA ([1]; listed as vamorolone): 0.059 event/second
- TTRW velocity, LS mean difference (SE), ANCOVA ([1]; listed as vamorolone): 0.286 meters/second
- TTSTAND velocity, LS mean difference (SE), ANCOVA ([1]; listed as vamorolone): 0.042 event/second
- TTCLIMB, LS mean difference, ANCOVA [1, 5]: -0.34 s
- TTRW, LS mean difference, ANCOVA [1, 5]: -0.84 s
- TTSTAND, LS mean difference, ANCOVA [1, 5]: -1.15 s
- Mean BMI z-score, 18-month value (SD) [2, 6]: 1.46 (0.62)
- Mean BMI z-score, change from baseline (SD) [2, 6]: 0.411 (0.615)
- Mean height percentile for age, 18-month value (SD) [2, 6]: 35.24 percentile
- Mean BMI z-score, change from baseline (SD) ([2]; 2.0 or 6.0 mg/kg/day for 18 months (groups C+D), listed as vamorolone): 0.41
- LS Mean change in height percentiles for age ([2]; DMD children, N 22, 18 months treatment): +6.9
- BMI change from baseline to 18 months of treatment ([2]; original dose group B (0.75 mg/kg/day, escalated)): 0.5 kg/m 2
- BMI change from baseline to 18 months of treatment ([2]; original dose group C (2.0 mg/kg/day)): 1.11 kg/m 2
- BMI change from baseline to 18 months of treatment ([2]; original dose group D (6.0 mg/kg/day)): 2.55 kg/m 2
- Mean BMI z-score, LS mean difference (SE), ANCOVA [2, 7]: 0.899 (0.204)
- Mean height percentile for age, LS mean difference (SE), ANCOVA [2, 7]: 6.72 (3.48) percentile
- Mean height percentile for age, LS mean difference (SE), ANCOVA [3]: 10.37 percentile
- TTSTAND after treatment (baseline 6.0 seconds) ([4]; vamorolone 6 mg/kg/day): 4.6 s
- TTSTAND velocity, treatment difference versus placebo in change from baseline ([4]; vamorolone 6 mg/kg/day): 0.06 rises/second
- difference between vamorolone and prednisone across TTSTAND, 6MWT, TTRW endpoints ([4]; vamorolone 6 mg/kg/day vs prednisone 0.75 mg/kg/day): no statistically significant differences
